Where a name gives a salt, the structure may show the parent alone. Read-outs that look alike come from different tables or passages of the source.
Assays:
[1] = Acute toxicity in the mouse; details: Albino Swiss CD-1, in vivo
Experimental: The acute toxicity of the tested compound CVie214-salt and CVie216-salt have been determined in the mouse (Albino Swiss CD-1, body weight 30 g). Compounds have been orally administered or intravenously injected at increasing doses to identify the dose causing 50% mortality. Mortality occurred within 30 min after the administration and survival after 24 h.
As comparison, the acute toxicity for the reference compounds Digoxin and Istaroxime were also included. Digoxin refers to literature data (www.lookchem.com, Reference for Digoxin intravenous: Afifi A M, Ammar E M. Pharmacological Research Communications. Vol. 6, Pg. 417, 1974; Reference for Digoxin oral: Archives Internationales de Pharmacodynamie et de Therapie. Vol. 153, Pg. 436, 1965) (Table 3).

STZ diabetic rats = experiment: Haemodynamics in streptozotocin diabetic rats (echocardiography); type: in vivo, rat; details: for diastolic function (in words) / overall cardiac function, SV and CO (in words): IV infusion
Experimental: CVie214 and CVie216 were tested in a diabetic rat model. Briefly, rats were injected with streptozotocin (STZ). After 7-9 weeks from STZ injection, rats were submitted to transthoracic echocardiographic and Doppler evaluation performed under urethane anesthesia. Two-dimensionally guided M-mode recordings were used to obtain short-axis measurements of left ventricular end-diastolic diameter (LVEDD), left ventricular end-systolic diameter (LVESD), posterior (PW) and septal (SW) diastolic wall thickness according to the American Society of Echocardiography guidelines (Lang R M et al., Eur J Echocardiography 2006, 7:79-108). Fractional shortening was calculated as FS=(LVEDD−LVESD)/LVEDD. Relative wall thickness was calculated as PWTd+IVSTd/LVEDD. Mitral inflow was measured by pulsed Doppler at the tips of mitral leaflets from an apical 4-chamber view to obtain early and late filling velocities (E, A) and deceleration time of early filling velocity (DT). The deceleration slope was calculated as E/DT ratio. The mitral deceleration index was calculated as DT/E ratio. Tissue Doppler Imaging (TDI) was evaluated from the apical 4-chamber view to record septal mitral annular movements, i.e., peak myocardial systolic (s′) and early and late diastolic velocity (e′ and a′).
After baseline hemodynamic measurements were taken, the rats were administered Digoxin, CVie214, CVie216 and compared to control. Digoxin, used as reference drug, was intravenously infused at 0.11 mg/kg/min for 15 min and echocardiographic parameters measured after 1 h. CVie214-salt and CVie216-salt were intravenously infused in STZ diabetic rats at 0.2 mg/kg/min and echocardiographic parameters were measured after 15 min and 30 min.
Tables 4-6 show the haemodynamic parameters in STZ diabetic rats for Digoxin, CVie214-salt, and Cvie216-salt.

in vivo = experiment: in vivo; parameters: dose or concentration left out as unconfirmed; details: rat
SERCA2a = SERCA2a (Cavia porcellus, UniProt A0A286XD73); details: literature; cited from earlier work
Sequence of SERCA2a (A0A286XD73 1-997): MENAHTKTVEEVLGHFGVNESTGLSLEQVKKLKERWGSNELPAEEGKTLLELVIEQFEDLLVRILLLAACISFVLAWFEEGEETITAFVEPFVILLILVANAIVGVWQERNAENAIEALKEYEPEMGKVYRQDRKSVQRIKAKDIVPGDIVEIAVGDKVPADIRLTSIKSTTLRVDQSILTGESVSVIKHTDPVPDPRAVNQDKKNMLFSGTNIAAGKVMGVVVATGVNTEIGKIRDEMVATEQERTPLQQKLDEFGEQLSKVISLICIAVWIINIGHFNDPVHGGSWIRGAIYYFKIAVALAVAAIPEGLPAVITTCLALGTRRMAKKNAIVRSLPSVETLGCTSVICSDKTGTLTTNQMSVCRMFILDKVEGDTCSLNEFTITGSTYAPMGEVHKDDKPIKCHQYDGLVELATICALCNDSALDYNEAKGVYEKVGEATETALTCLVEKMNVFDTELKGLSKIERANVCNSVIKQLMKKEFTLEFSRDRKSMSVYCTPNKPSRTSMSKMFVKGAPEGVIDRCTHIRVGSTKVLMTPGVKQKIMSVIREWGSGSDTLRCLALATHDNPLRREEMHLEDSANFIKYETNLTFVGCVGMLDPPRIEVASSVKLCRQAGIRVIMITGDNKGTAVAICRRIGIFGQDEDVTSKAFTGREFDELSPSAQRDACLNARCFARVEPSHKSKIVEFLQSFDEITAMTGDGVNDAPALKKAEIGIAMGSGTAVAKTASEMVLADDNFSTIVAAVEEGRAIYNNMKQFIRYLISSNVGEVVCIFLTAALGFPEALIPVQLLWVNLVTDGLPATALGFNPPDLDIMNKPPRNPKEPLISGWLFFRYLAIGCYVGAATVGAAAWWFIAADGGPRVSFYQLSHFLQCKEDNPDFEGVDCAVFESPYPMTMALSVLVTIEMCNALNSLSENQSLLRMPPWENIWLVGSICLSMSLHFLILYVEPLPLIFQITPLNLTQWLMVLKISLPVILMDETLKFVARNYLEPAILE

[2] = target: dog renal Na^+/K^+ ATPase (Canis lupus familiaris (Dog) (Canis familiaris), UniProt P50997); details: read-out: IC50 inhibition of dog renal Na+/K+ ATPase; purified dog kidney enzyme;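 also: enzyme preincubated with inhibitor 10 min at 37 °C, then K^+ and ^32P-ATP added for 15 min, released ^32P counted, activity relative to untreated control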
From the text: Inhibition of Dog Renal Na^+/K^+ ATPase Activity
The compounds were thus tested for their inhibitory effect on the canine renal Na^+/K^+ ATPase enzyme.
Kidneys were excised from 1-3 year-old male beagle dogs (WuXi AppTec, Suzhou Co., Ltd. 1318 Wuzhong Ave., Wuzhong District Suzhou, 215104 P.R. China) under pentobarbital anesthesia (Import Authorization from Italian Health Ministry 0009171-09/04/2015-DGSAF-COD_UO-P, 2015). Kidneys were sliced and the outer medulla was dissected and suspended (1 g/10 ml) in a sucrose-histidine solution containing 250 mM sucrose, 30 mM histidine, and 5 mM EDTA, pH 7.2. The tissue was homogenized by using an Ultra Turrax homogenizer. The sample was centrifuged at 6,000 g for 15 min. Next, the supernatant was decanted and centrifuged at 48,000 g for 30 min. The pellet was suspended in the sucrose-histidine buffer and incubated for 20 min with a sodium-dodecyl-sulphate (SDS) solution dissolved in a gradient buffer containing 25 mM imidazole and 1 mM EDTA, pH 7.5. The sample was layered on the top of a sucrose discontinuous gradient (10, 15, and 29.4%) and centrifuged at 60,000 g for 115 min. The pellet was suspended in the gradient buffer.
Increasing concentrations of the standard ouabain, or tested compound, were incubated with 0.3 μg of purified dog kidney enzyme for 10 min at 37° C. in 120 μl final volume of a medium containing 140 mM NaCl, 3 mM MgCl2, 50 mM Hepes-Tris, 3 mM ATP, pH 7.5. Then, 10 μl of a solution containing 10 mM KCl and 20 nCi of ^32P-ATP (3-10 Ci/mmol, Perkin Elmer) were added. The reaction was allowed to continue for 15 min at 37° C. and then stopped by acidification with 20% v/v ice-cold perchloric acid. ^32P was separated by centrifugation with activated Charcoal (Norit A, Serva) and the radioactivity was counted. The inhibitory activity was expressed as percent of the control samples carried out in the absence of ouabain, or tested compound.

[3] = tested on: mouse (Albino Swiss CD-1); details: data from literature, cited from earlier work
[4] = tested on: rat ventricular myocytes isolated from STZ rats; details: literature; cited from earlier work
[5] = after 15 min IV infusion 0.2 mg/kg/min
[6] = after 30 min IV infusion 0.2 mg/kg/min
[7] = after 15 min Digoxin IV infusion 0.11 mg/kg/min

Q: What does the source list for `C[C@]12CC[C@H](CCCC(=O)O)CC1[C@@H](O)CC1C2CC[C@]2(C)C(=O)CCC12` (stereo partly drawn) [CVie214-salt, 4-(6alpha-hydroxy-17-oxoandrostane-3-yl) butyric acid]?
A: LD50 at 24 h ([1]; iv): 300 mg/kg; LD50 at 24 h ([1]; oral, os): > 800 mg/kg; diastolic function (in words) (STZ diabetic rats): ameliorated diastolic function; overall cardiac function, SV and CO (in words) (STZ diabetic rats): improvement; A late filling velocity of mitral inflow (STZ diabetic rats; [5]): 0.65 ± 0.13 m/s; CO cardiac output (STZ diabetic rats; [5]): 177.23 ± 40.64 mL/min; DT deceleration time of E wave (STZ diabetic rats; [5]): 42.5 ± 10.19 ms; DT/E mitral deceleration index (STZ diabetic rats; [5]): 49.52 ± 12.41 s2/m; E early filling velocity of mitral inflow (STZ diabetic rats; [5]): 0.88 ± 0.15 m/s; E/A index of LV function (STZ diabetic rats; [5]): 1.36 ± 0.17; E/DT deceleration slope (STZ diabetic rats; [5]): 21.49 ± 5.8 m/s2; E/e′ index of LV filling pressure (STZ diabetic rats; [5]): 37.49 ± 4.34; FS fractional shortening (STZ diabetic rats; [5]): 58.1 ± 8.59%; HR heart rate (STZ diabetic rats; [5]): 268 ± 54 beat/min; SV stroke volume (STZ diabetic rats; [5]): 0.68 ± 0.19 ml/beat; a′ TDI late relaxation velocity (STZ diabetic rats; [5]): 29.13 ± 6.56 cm/s; e′ TDI early relaxation velocity (STZ diabetic rats; [5]): 23.33 ± 2.62 cm/s; s′ TDI contraction velocity (STZ diabetic rats; [5]): 22.45 ± 3.12 cm/s; A late filling velocity of mitral inflow (STZ diabetic rats; [6]): 0.69 ± 0.11 m/s; CO cardiac output (STZ diabetic rats; [6]): 175.15 ± 33.96 mL/min; DT deceleration time of E wave (STZ diabetic rats; [6]): 42.15 ± 9.88 ms; DT/E mitral deceleration index (STZ diabetic rats; [6]): 48.51 ± 16.44 s2/m; E early filling velocity of mitral inflow (STZ diabetic rats; [6]): 0.91 ± 0.16 m/s; E/A index of LV function (STZ diabetic rats; [6]): 1.34 ± 0.21; E/DT deceleration slope (STZ diabetic rats; [6]): 23.18 ± 8.37 m/s2; E/e′ index of LV filling pressure (STZ diabetic rats; [6]): 37.47 ± 4.48; FS fractional shortening (STZ diabetic rats; [6]): 60.69 ± 8.36%; HR heart rate (STZ diabetic rats; [6]): 252 ± 49 beat/min; SV stroke volume (STZ diabetic rats; [6]): 0.71 ± 0.16 ml/beat; a′ TDI late relaxation velocity (STZ diabetic rats; [6]): 28.94 ± 5.32 cm/s; e′ TDI early relaxation velocity (STZ diabetic rats; [6]): 24.24 ± 2.34 cm/s; s′ TDI contraction velocity (STZ diabetic rats; [6]): 21.82 ± 2.81 cm/s; bioavailability (in vivo): 41.5%

Q: With `C[C@H]1O[C@@H](O[C@H]2[C@@H](O)C[C@H](O[C@H]3[C@@H](O)C[C@H](O[C@H]4CC[C@@]5(C)[C@H](CC[C@@H]6[C@@H]5C[C@@H](O)[C@]5(C)[C@@H](C7=CC(=O)OC7)CC[C@]65O)C4)O[C@@H]3C)O[C@@H]2C)C[C@H](O)[C@@H]1O` [Digoxin, reference compound] as the molecule, how does the “stimulation of SERCA2a activity (in words)” value (SERCA2a) read?
A: failed to stimulate

Q: What about the “diastolic function (in words)” value (STZ diabetic rats) of the same molecule?
A: ameliorated diastolic function

Q: And the “overall cardiac function, SV and CO (in words)” value (STZ diabetic rats)?
A: did not affect

Q: What about the “A late filling velocity of mitral inflow” value (STZ diabetic rats; [7]) of the same molecule?
A: 0.79 ± 0.19 m/s

Q: What about the CO cardiac output (STZ diabetic rats; [7]) of the same molecule?
A: 155.6 ± 45.7 mL/min

Q: What about the “DT deceleration time of E wave” value (STZ diabetic rats; [7]) of the same molecule?
A: 44.1 ± 10.29 ms

Q: What about the “DT/E mitral deceleration index” value (STZ diabetic rats; [7]) of the same molecule?
A: 50.18 ± 17.05 s2/m

Q: What about the “E early filling velocity of mitral inflow” value (STZ diabetic rats; [7]) of the same molecule?
A: 0.92 ± 0.19 m/s

Q: What about the “E/A index of LV function” value (STZ diabetic rats; [7]) of the same molecule?
A: 1.20 ± 0.21

Q: What about the E/DT deceleration slope (STZ diabetic rats; [7]) of the same molecule?
A: 22.66 ± 9.56 m/s2

Q: What about the “E/e′ index of LV filling pressure” value (STZ diabetic rats; [7]) of the same molecule?
A: 38.95 ± 7.31

Q: And the FS fractional shortening (STZ diabetic rats; [7])?
A: 53.1 ± 5.6*6%

Q: What about the HR heart rate (STZ diabetic rats; [7]) of the same molecule?
A: 257 ± 36 beat/min

Q: What about the SV stroke volume (STZ diabetic rats; [7]) of the same molecule?
A: 0.6 ± 0.12 ml/beat

Q: And the “a′ TDI late relaxation velocity” value (STZ diabetic rats; [7])?
A: 29.78 ± 6.17 cm/s

Q: And the “e′ TDI early relaxation velocity” value (STZ diabetic rats; [7])?
A: 23.82 ± 2.87 cm/s

Q: What about the “s′ TDI contraction velocity” value (STZ diabetic rats; [7]) of the same molecule?
A: 26.03 ± 4.66 cm/s

Q: What about the IC50 [2] of the same molecule?
A: 180 nM

Q: What about the LD50 ([3]; iv) of the same molecule?
A: 7.7 mg/kg

Q: And the LD50 ([3]; os)?
A: 17.8 mg/kg

Q: And the “effect detected by the SR loading protocol” value [4]?
A: did not detect any effect

Reference: patent US12503484B2, “Androstane derivatives with activity as pure or predominantly pure stimulators of SERCA2a for the treatment of heart failure” (Seismic Pharmaceuticals, priority 2019, dated 2025)
